Source: patent US20040265940A1, “Amperometer sensor” (priority 2001, published 2004)
Read-outs that look alike come from different tables or passages of the source.

What was measured:
[1] = cited from earlier work; for Solubility: values obtained from SRC PhysProp Database
[2] = Potential of oxidation peak at a glassy carbon electrode; type: physicochemical; conditions: pH 6.95 bis-tris buffer, Ag/AgCl/sat. KCl reference electrode
[3] = versus SCE; cited from earlier work

CC1=CC(=O)C=C(C)C1=O
solubility in water ([1]; in water at 25° C.): 7888 mgL^−1 | Solubility [1]: 7.88 E+03 (SRC) mg/L | Eox (potential of oxidation peak) [2]: 137 mV

O=C1C=CC(=O)C=C1 [1,4-benzoquinone, reference compound]
solubility in water ([1]; in water at 18° C.): 11,000 mgL^−1 | Solubility [1]: 1.11 E+04 (SRC) mg/L | oxidation potential [3]: approximately +400 mV | Eox (potential of oxidation peak) [2]: 278 mV

COC1=C(OC)C(=O)C(C)=CC1=O [2,3-dimethoxy-5-methyl-1,4-benzoquinone]
solubility in water ([1]; in water at 25° C.): 11,000 mgL^−1 | Solubility [1]: 1.11 E+04 (SRC) mg/L | Eox (potential of oxidation peak) [2]: 156 mV

COC1=CC(=O)C=C(OC)C1=O [2,6-dimethoxy-1,4-benzoquinone]
solubility in water ([1]; in water at 25° C.): 70,600 mgL^−1 | Solubility [1]: 7.06 E+04 (SRC) mg/L | Eox (potential of oxidation peak) [2]: 166 mV

COC1=CC(=O)C=C(CO)C1=O [2-hydroxymethyl-6-methoxy-1,4-benzoquinone]
Eox (potential of oxidation peak) [2]: 158 mV

O=C1C=CC(=O)C(c2ccccc2)=C1 [Phenyl-1,4-benzoquinone]
solubility in water ([1]; in water at 25° C.): 1135 mgL^−1 | Solubility [1]: 1.14 E+03 (SRC) mg/L | Eox (potential of oxidation peak) [2]: 229 mV

CC1=C(C)C(=O)C(C)=C(C)C1=O [Tetramethyl-1,4-benzoquinone]
solubility in water ([1]; in water at 25° C.): 443 mgL^−1 | Solubility [1]: 4.43 E+02 (SRC) mg/L | Eox (potential of oxidation peak) [2]: −37 mV
